# In US10959984B2, “Methods for treating cancer with RORγ inhibitors” (THE REGENTS OF THE UNIVERSITY OF CALIFORNIA, priority 2015, dated 2021):
# Test system: AR
# Experiment: Anti-AR ChIP-seq
# Format: cell-based, human
# Conditions: C4-2B cells, 5 μM, 24 hours
# Procedure: C4-2B cells were treated with vehicle or SR2211 (5 μM) for 24 hours before harvested for ChIP-seq. ChIP-seq experiments were performed as described^65. Anti-AR ChIP-seq was repeated in two independent experiments. Antibodies used were against AR (Santa Cruz; sc-815); RNA Pol II (Santa cruz; sc-899); H3K4me2 (Abcam ab32356); H3K4me3 (Abcam; ab8580); H3 (acetyl K27) (Abcam; ab4729). Libraries were quantified with the Bioanalyzer 2100 (Agilent) and sequenced on the Illumina HiSeq 2000 Sequencer (BGI, Hong Kong). Sequencing tags were mapped against the Homo sapiens (Human) reference genome (hg19) using Bowtie 2^66. Uniquely mapped tags were used for peak calling by MACS(2.1.0)^67 to identify regions of ChIP-Seq enrichment over background. A q value threshold of enrichment of 5×10^−2 was used for all data sets. Normalized genome-wide signal coverage tracks from raw read alignment files were built by MACS2, UCSC tools (http://hgdownload.cse.ucsc.edu/admin/exe/linux.x86_64/bedGraphToBigWig/bedClip) and bedTools (http://code.google.com/p/bedtools/). Visualization of ChIP-seq signal at enriched genomic regions (avgprof and heatmap) was achieved by using ngs.plot (https://github.com/shenlab-sinai/ngsplot). ChIP-seq data have been deposited to NCBI-GEO with accession code GSE72714.
structure (smiles),measurement,value
"OC(c1ccc(-c2ccc(CN3CCN(Cc4ccncc4)CC3)cc2)c(F)c1)(C(F)(F)F)C(F)(F)F [SR2211, 2-Fluoro-4′-[[4-(4-pyridinylmethyl)-1-piperazinyl]methyl]-a,a-bis (trifluoromethyl)-[1,1′-biphenyl]-4-methanol]",genome-wide AR binding to its target loci,dramatic inhibition of genome-wide AR binding
